In ChEMBL document CHEMBL3526036, “Hepatic pharmacokinetics of cationic drugs in a high-fat emulsion-induced rat model of nonalcoholic steatohepatitis” (Drug Metab Dispos, 2011):
One block for each molecule: values may come before it.

Assays:
Liver [1] = assay: Apparent distribution ratio of the compound in healthy Wistar rat perfused liver at 4 mM after 10 mins; type: ADME, tissue-based; conditions: 4000 µM
Liver [2] = assay: Mean transit time of the compound in healthy Wistar rat perfused liver at 4 mM after 10 mins; type: ADME, tissue-based; conditions: 4000 µM
[3] = Extraction ratio of the compound in perfused liver of high-fat emulsion-induced nonalcoholic steatohepatitis Wistar rat at 4 mM after 10 mins; type: ADME, tissue-based; conditions: read-out: ERH
[4] = Extraction ratio of the compound in healthy Wistar rat perfused liver at 4 mM after 10 mins; type: ADME, tissue-based; conditions: read-out: ERH
[5] = Dissociation constant, pKa of the compound; type: physicochemical
[6] = Octanol-water apparent partition coefficient, logD of the compound at pH 7.4; type: physicochemical
Liver [7] = assay: Mean transit time of the compound in perfused liver of high-fat emulsion-induced nonalcoholic steatohepatitis Wistar rat at 4 mM after 10 mins; type: ADME, tissue-based; conditions: 4000 µM
Liver [8] = assay: Apparent distribution ratio of the compound in perfused liver of high-fat emulsion-induced nonalcoholic steatohepatitis Wistar rat at 4 mM after 10 mins; type: ADME, tissue-based; conditions: 4000 µM
Liver [9] = assay: Drug distribution in healthy Wistar rat perfused liver assessed as equilibrium amount ratio charactering slow binding process at 6 mM after 10 mins; type: ADME, tissue-based; conditions: in vivo, 6000 µM
Liver [10] = assay: Mean transit time of the compound in perfused liver of high-fat emulsion-induced nonalcoholic steatohepatitis Wistar rat at 6 mM after 10 mins; type: ADME, tissue-based; conditions: 6000 µM
Liver [11] = assay: Drug distribution in perfused liver of high-fat emulsion-induced nonalcoholic steatohepatitis Wistar rat assessed as equilibrium amount ratio charactering fast binding process at 6 mM after 10 mins; type: ADME, tissue-based; conditions: in vivo, 6000 µM
in vitro [12] = conditions: Wistar, rat, perfused liver
Description: Extraction ratio of the compound in healthy Wistar rat perfused liver at 6 mM after 10 mins

Liver [13] = assay: Apparent distribution ratio of the compound in healthy Wistar rat perfused liver at 6 mM after 10 mins; type: ADME, tissue-based; conditions: 6000 µM
Liver [14] = assay: Drug distribution in perfused liver of high-fat emulsion-induced nonalcoholic steatohepatitis Wistar rat assessed as equilibrium amount ratio charactering slow binding process at 6 mM after 10 mins; type: ADME, tissue-based; conditions: in vivo, 6000 µM
Liver [15] = assay: Drug distribution in healthy Wistar rat perfused liver assessed as equilibrium amount ratio charactering fast binding process at 6 mM after 10 mins; type: ADME, tissue-based; conditions: in vivo, 6000 µM
in vitro [16] = conditions: Wistar, rat, perfused liver; remark: listed apart in the source
Description: Extraction ratio of the compound in perfused liver of high-fat emulsion-induced nonalcoholic steatohepatitis Wistar rat at 6 mM after 10 mins

Liver [17] = assay: Apparent distribution ratio of the compound in perfused liver of high-fat emulsion-induced nonalcoholic steatohepatitis Wistar rat at 6 mM after 10 mins; type: ADME, tissue-based; conditions: 6000 µM
Liver [18] = assay: Mean transit time of the compound in healthy Wistar rat perfused liver at 6 mM after 10 mins; type: ADME, tissue-based; conditions: 6000 µM
Liver [19] = assay: Mean transit time of the compound in perfused liver of high-fat emulsion-induced nonalcoholic steatohepatitis Wistar rat at 3 mM after 10 mins; type: ADME, tissue-based; conditions: 3000 µM
Liver [20] = assay: Apparent distribution ratio of the compound in perfused liver of high-fat emulsion-induced nonalcoholic steatohepatitis Wistar rat at 3 mM after 10 mins; type: ADME, tissue-based; conditions: 3000 µM
Liver [21] = assay: Drug distribution in healthy Wistar rat perfused liver assessed as equilibrium amount ratio charactering slow binding process at 3 mM after 10 mins; type: ADME, tissue-based; conditions: in vivo, 3000 µM
Liver [22] = assay: Mean transit time of the compound in healthy Wistar rat perfused liver at 3 mM after 10 mins; type: ADME, tissue-based; conditions: 3000 µM
Liver [23] = assay: Drug distribution in perfused liver of high-fat emulsion-induced nonalcoholic steatohepatitis Wistar rat assessed as equilibrium amount ratio charactering fast binding process at 8 mM after 10 mins; type: ADME, tissue-based; conditions: in vivo, 8000 µM
Liver [24] = assay: Drug distribution in healthy Wistar rat perfused liver assessed as equilibrium amount ratio charactering slow binding process at 8 mM after 10 mins; type: ADME, tissue-based; conditions: in vivo, 8000 µM
Liver [25] = assay: Apparent distribution ratio of the compound in perfused liver of high-fat emulsion-induced nonalcoholic steatohepatitis Wistar rat at 8 mM after 10 mins; type: ADME, tissue-based; conditions: 8000 µM
Liver [26] = assay: Drug distribution in perfused liver of high-fat emulsion-induced nonalcoholic steatohepatitis Wistar rat assessed as equilibrium amount ratio charactering slow binding process at 8 mM after 10 mins; type: ADME, tissue-based; conditions: in vivo, 8000 µM
Liver [27] = assay: Mean transit time of the compound in healthy Wistar rat perfused liver at 8 mM after 10 mins; type: ADME, tissue-based; conditions: 8000 µM
Liver [28] = assay: Mean transit time of the compound in perfused liver of high-fat emulsion-induced nonalcoholic steatohepatitis Wistar rat at 8 mM after 10 mins; type: ADME, tissue-based; conditions: 8000 µM
Liver [29] = assay: Apparent distribution ratio of the compound in healthy Wistar rat perfused liver at 8 mM after 10 mins; type: ADME, tissue-based; conditions: 8000 µM
Liver [30] = assay: Drug distribution in healthy Wistar rat perfused liver assessed as equilibrium amount ratio charactering fast binding process at 8 mM after 10 mins; type: ADME, tissue-based; conditions: in vivo, 8000 µM

Structure (SMILES): Cc1cc(=O)n(-c2ccccc2)n1C [ANTIPYRINE]
K (Liver [1]): 2.67
MTT (Liver [2]): 46.46 s
hepatic extraction ratio at 10 min, 4000 µM [3]: 0.08
hepatic extraction ratio at 10 min, 4000 µM [4]: 0.16
pKa [5]: 1.45
logD ([6]; read-out: LogD7.4): 0.33
MTT (Liver [7]): 64.12 s
K (Liver [8]): 4.5

K (Liver [1]): 9.9
MTT (Liver [2]): 13.12 s
MTT (Liver [7]): 18.63 s
K (Liver [8]): 12.51
Structure (SMILES): CC(C)NCC(O)COc1ccc(CC(N)=O)cc1 (stereo unspecified) [ATENOLOL]

K (Liver [9]): 6.78
MTT (Liver [10]): 33.98 s
K (Liver [11]): 1.94
hepatic extraction ratio at 10 min, 6000 µM (in vitro [12]): 0.86
K (Liver [13]): 6.45
K (Liver [14]): 11.81
LogD7.4 [6]: 2.69
K (Liver [15]): 1.08
hepatic extraction ratio at 10 min, 6000 µM (in vitro [16]): 0.79
K (Liver [17]): 10.94
MTT (Liver [18]): 29.1 s
Structure (SMILES): CC(CCc1ccccc1)NCC(O)c1ccc(O)c(C(N)=O)c1 (stereo unspecified) [LABETALOL]

MTT (Liver [19]): 67.43 s
K (Liver [20]): 11.97
LogD7.4 [6]: 1.79
K (Liver [21]): 2.27
MTT (Liver [22]): 60.26 s
Structure (SMILES): COCCc1ccc(OCC(O)CNC(C)C)cc1 (stereo unspecified) [METOPROLOL]

K (Liver [23]): 0.38
K (Liver [24]): 13.59
K (Liver [25]): 16.31
K (Liver [26]): 5.35
MTT (Liver [27]): 58.14 s
MTT (Liver [28]): 70.99 s
K (Liver [29]): 10.76
K (Liver [30]): 1.96
Structure (SMILES): CC(C)NCC(O)COc1cccc2ccccc12 (stereo unspecified) [PROPRANOLOL]
